# Results taken from US10913757B2, “Hydroxycinnamic derivatives, methods and uses thereof” (UNIVERSIDADE DO PORTO, priority 2016, dated 2021).
# pIC50: −log10 of the molar value. Marks after values point to notes of the source that are not given here.
# Experiments:
# [1] = Redox properties by differential pulse and cyclic voltammetry; assay type: physicochemical
# Procedure: In an embodiment, and as an example, AntiOxCINs redox properties were evaluated (Table 1). Redox potentials are correlated with the ability of an antioxidant to donate a hydrogen atom and/or an electron to a free radical.
# However, for pyrogallol derivatives (AntiOxCIN4, AntiOxCIN5 and AntiOxCIN7), a significant decrease in redox potentials was observed (Ep=0.034-0.057 V) (Table 1).
# The voltammograms presented a diffusion peak and an adsorption post-peak at a more anodic potential correspondent to the oxidation of dissolved and adsorbed forms of the compounds, respectively. The oxidation waves can be related to the oxidation process of the pyrogallol moiety. The cyclic voltammograms also show the presence of two overlapped anodic peaks. The anodic peaks appeared to correspond to irreversible processes as any distinct reduction wave was not seen on the cathodic sweep. The existence of the additional phenolic group in the pyrogallol systems, when compared with the catechol ones, seems to influence the stabilization of the semiquinone intermediate and in turn the oxidative mechanism.
# (§1) In an embodiment, the electrochemical analytical data was obtained using a computer controlled potentiostat Autolab PGSTAT302N (Metrohm Autolab, Utrecht, Netherlands). Generally, cyclic voltammetry (CV) data was acquired at a scan rate of 50 mVs^−1. Differential pulse voltammetry (DPV) results were acquired at a step potential of 4 mV, pulse amplitude of 50 mV and scan rate of 8 mVs^−1. The electrochemical signals were monitored by the General Purpose Electrochemical System (GPES) version 4.9, software package. All electrochemical experiments were performed at room temperature in an electrochemical cell that was placed in a Faraday cage in order to minimize the contribution of background noise to the analytical signal.
# (§2) In an embodiment, the process of evaluation of AntiOxCINs redox properties was conducted as follows: stock solutions of each compound (10 mM) were prepared by dissolving the appropriate amount in ethanol. The voltammetric working solutions were prepared in the electrochemical cell, at a final concentration of 0.1 mM. The […] supporting electrolyte was prepared by diluting […] to 100 mL. Voltammetric data was acquired in a three-electrode system consisting of a glassy carbon electrode (GCE, d=2 mm) as working electrode, a counter electrode of platinum wire and a saturated Ag/AgCl reference electrode. In an embodiment, the evaluation of AntiOxCINs lipophilic properties was performed as follows: the electrochemical cell was a four-electrode system with arrays of micro liquid-liquid interfaces (μlTIES) containing two Ag/AgCl reference electrodes and two counter electrodes of Pt, one in each phase. The microporous membrane was sealed with a fluorosilicone sealant (Dow Corning 730) onto a glass cylinder which was filled with 4.0 mL of the aqueous phase, where the aliquots of AntiOxCINs solutions were added. The membrane was then immersed into the organic phase contained in the cell. The organic phase reference solution (a 2 mM BTPPACI+2 mM NaCl aqueous solution) was mechanically stabilized The aqueous supporting electrolyte solution was a Tris-HCl buffer 10 mM pH 7.0.
# [2] = DPPH radical scavenging activity (TAC assay); assay type: biochemical; settings: ethanol, absorbance 515 nm
# Excerpt: (§3) In an embodiment, the AntiOxCINs antioxidant ranking activity hierarchy was established by in vitro non-cell methods. The selected total antioxidant capacity (TAC) assays (DPPH, ABTS and GO) involved the spectrophotometric measurement of the radical absorbance decrease as a result of an in situ radical deactivation by an antioxidant. Compounds with higher antioxidant activity display lower IC50 values. […] This decrease was attenuated/ameliorated by the increment of the spacer length and/or the introduction of additional hydroxyl group in the aromatic ring.
# (§4) The radical scavenging activity of AntiOxCINs was evaluated by means of total antioxidant capacity assays based on DPPH., ABTS.^+ and GO. radicals. All these methods involved the spectrophotometric measurement of the absorbance decrease resulting from radical (DPPH., ABTS.^+ or GO.) deactivation with an antioxidant. The results were expressed in IC50, which is defined as the minimum antioxidant concentration necessary to reduce the amount of radical by 50%. Antioxidant assays were performed in a multiplate reader (Powerwave XS Microplate Reader) of Bio-Tech instruments.
# In an embodiment, the DPPH. radical scavenging activity was performed as follows: solutions of the test compounds with increasing concentrations (range between 0 μM and 500 μM) were prepared in ethanol. A DPPH′ ethanolic solution (6.85 mM) was also prepared and then diluted to reach the absorbance of 0.72±0.02 at 515 nm. Each compound solution (20 μL) was added to 180 μL of DPPH′ solution in triplicate, and the absorbance at 515 nm was recorded minutely over 45 minutes. […] Dose-response curves were established for the determination of IC50 values. Data are means±SEM of three independent experiments.
# [3] = GO radical scavenging activity (TAC assay); assay type: biochemical; settings: ethanol, absorbance 428 nm
# Excerpt: as §3, §4
# In an embodiment, the GO′ scavenging activity was evaluated as follows: solutions of test compounds with concentrations from 5 μM to 75 μM were prepared in ethanol. An ethanolic solution of 5 mM GO′ was prepared and diluted to reach the absorbance of 1.00±0.02 at 428 nm. The addition (20 μL) in triplicate of compound solution to GO. solution (180 μL) was followed by absorbance measurement at 428 nm over 30 minutes, in the dark, at room temperature. […] Dose-response curves were established for the determination of IC50 values. Data are means±SEM of three independent experiments.
# [4] = system: mouse myoblast C2C12 cells; settings: cited from earlier work
# [5] = ABTS radical cation scavenging activity (TAC assay); assay type: biochemical; settings: ethanol
# Excerpt: as §3, §4
# In an embodiment, the ABTS.^+ scavenging activity was evaluated as follows: ethanolic solutions of the test compounds with increasing concentrations (range between 10 μM and 500 μM) were prepared. ABTS.^+ radical cation solution was obtained by addition of 150 mM aqueous potassium persulfate solution (163 μL) to 10 mL of 7 mM aqueous ABTS solution followed by storage in the dark at room temperature for 16 h (2.45 mM final concentration). The solution was then diluted in ethanol to reach the absorbance of 0.72±0.02. After addition of the compound (20 μL), in triplicate, to ABTS.^+ solution (180 μL) the spectrophotometric measurement was carried out each minute over 15 minutes. […] Dose-response curves were established for the determination of IC50 values. Data are means±SEM of three independent experiments.
# [6] = Lipophilic properties by electrochemistry at ITIES (transfer potential); assay type: physicochemical; settings: aqueous phase to 1,6-dichlorohexane, DPV, C=0.32 mM
# Procedure: In an embodiment, AntiOxCINs lipophilic properties were evaluated at physiological pH by electrochemistry. The used technique is often used to mimic the transfer of ionic drugs through biological membranes as the process occurs at the interface between two immiscible electrolyte solutions (ITIES). The transfer potential (Etr) at which the ionic drug, initially present in the aqueous phase (C=0.32 mM), is transferred to the 1,6-dichlorohexane (DCH) phase is measured by differential pulse voltammetry (DPV). In the ITIES model, the transfer potential (Etr) becomes less positive with the increasing of the drug lipophilic character.
# as §1, §2
smiles,measurement,setting,value
"CS(=O)(=O)[O-].O=C(/C=C/c1ccc(O)c(O)c1)NCC[P+](c1ccccc1)(c1ccccc1)c1ccccc1 [AntiOxCIN1, reference compound]",reversibility of the oxidation reaction,"[1]; cyclic voltammetry, physiological pH",reversible reaction
same,Ep (redox potential),"[1]; physiological pH (7.4), voltammetry, listed as AntiOxClN1",0.166^a) V
same,pIC50,[2],4.45
same,pIC50,[3],5.35
same,"protection against oxidative stress stressors (H2O2, linoleic acid-hydroperoxides)",[4],protected
same,pIC50,[5],4.48
same,Etr (transfer potential),[6],0.572 V
